Experimental data reported in PMC4627656, “Combining Metabolite-Based Pharmacophores with Bayesian Machine Learning Models for Mycobacterium tuberculosis Drug Discovery” (PLoS ONE, 2015).
In brackets after ≈: the same amount, converted by molar mass. Read-outs that look alike come from different tables or passages of the source.

Experiments:
Mtb H37Rv strain = assay: Resazurin (Alamar Blue) MIC assay against replicating Mtb; type: cell-based, Mycobacterium tuberculosis; conditions: lowest concentration inhibiting ≥90% growth, initial hits, quinoxaline di-N-oxides, positive controls; for MIC: Mycobacterium tuberculosis, H37RV
Mtb = system: Mtb; design: method as in PMID 18502817; conditions: cited from earlier work
in vitro [1] = conditions: African green monkey
mammalian cell = conditions: cited from earlier work
[2] = mouse, microsomes, pH 7.4
Protocol: The test agent was incubated in duplicate with mouse liver microsomes at 37°C. The reaction contained microsomal protein in 100 mM K3PO4, 2 mM NADPH, and 3 mM MgCl2 at pH 7.4. A control was run for each test agent omitting NADPH to detect NADPH-free degradation. At t = 0 and 60 min, an aliquot was removed from each experimental and control reaction and mixed with an equal volume of ice-cold Stop Solution (methanol containing propranolol as an internal standard). Stopped reactions were incubated at least ten min at -20°C, and an additional volume of water was added. The samples were centrifuged to remove precipitated protein, and the supernatants were analyzed by LC/MS/MS to quantitate the remaining parent. Data were reported as % remaining by dividing by the time zero concentration value.

physchem = type: physicochemical; conditions: 37 °C, pH 7.4, aqueous buffer, kinetic from dmso stock
Protocol: Serial dilutions of the test agent were prepared in DMSO at 100x the final concentration. Test article solutions were diluted 100-fold into pH 7.4 phosphate-buffer saline (PBS) in a 96-well plate and mixed. After 2 h at 37°C, the presence of precipitate was detected by turbidity (absorbance at 540 nm). An absorbance value of greater than ‘mean + 3x standard deviation of the blank’ (after subtracting the background) was indicative of turbidity. For brightly colored compounds, a visual inspection of the plate was performed to verify the solubility limit determined by UV absorbance. The solubility limit was reported as the highest experimental concentration with no evidence of turbidity.

clinical strain 692 = assay: AlamarBlue MIC (absorbance), strain panel: 692; type: cell-based; conditions: Mycobacterium tuberculosis, pan-susceptible
in vitro [3] = conditions: human, Caco-2
Caco-2 cell permeability = conditions: human
[4] = in vitro cultured Mtb H37Rv, read-out: Mtb MIC (H37Rv)
[5] = 3.2 μg/mL (1.3X MIC), 6 h, vs DMSO

Structure (SMILES)	MIC (Mtb H37Rv strain; [4]) [µg/mL]	CC50 at 72 h (in vitro [1]) [µg/mL]	% Compound remaining after 1h in the absence of NADPH [2] [%]	% Compound remaining after 1h in the presence of NADPH [2] [%]	solubility kinetic at 2 h (physchem) [µM]	Papp A→B at 2 h, 10 μM (in vitro [3]) [×10⁻⁶ cm/s]	Papp B→A at 2 h, 10 μM (in vitro [3]) [×10⁻⁶ cm/s]	also measured
CC(=O)c1c(C)[n+]([O-])c2ccccc2[n+]1[O-] [SRI1, 1-(3-methyl-1,4-dioxy-quinoxalin-2-yl)-ethanone]	2.5 (≈ 11.5 µM)	> 40	–	–	–	–	–	MIC previously identified (Mtb): 3.13 µg/mL (≈ 14.3 µM); Mammalian cell cytotoxicity previously reported (mammalian cell): no appreciable mammalian cell cytotoxicity
CCCCC(=O)c1c(C)[n+]([O-])c2ccc([N+](=O)[O-])cc2[n+]1[O-] [SRI50]	0.32 (≈ 1.05 µM)	3.4 (≈ 11.1 µM)	77.5	0.06	125 (≈ 38.2 µg/mL)	–	–	MIC (clinical strain 692): 0.16 µg/mL (≈ 0.524 µM)
CCCCC(=O)c1c(C)[n+]([O-])c2cc(Cl)c(Cl)cc2[n+]1[O-] [SRI54]	2.5 (≈ 7.59 µM)	15 (≈ 45.6 µM)	79.1	0	15.6 (≈ 5.14 µg/mL)	0.66	0.1	Genes down-regulated at minimum twofold versus control (Mtb (H37Rv); [5]): 184 genes; Genes up-regulated at least twofold versus control (Mtb (H37Rv); [5]): 131 genes; DNA repair genes down-regulated at least twofold (Mtb (H37Rv); 3.2 μg/mL, 6 h): 2/59; DNA repair genes up-regulated at least twofold (Mtb (H37Rv); 3.2 μg/mL, 6 h): 12/59; Methylcitrate cycle genes (prpC, prpD, icl1) induced more than fourfold versus control (Mtb (H37Rv); 3.2 μg/mL, 6 h): 3/13; Avg. fold induction over four replicates, hypothetical protein ORF01494 (Mtb (H37Rv); ORF01494, treated vs DMSO): 11.22; Avg. fold induction over four replicates, Rv0560c (Mtb (H37Rv); gene Rv0560c, treated vs DMSO): 38.01; Avg. fold induction over four replicates, Rv1130 (Mtb (H37Rv); gene Rv1130, treated vs DMSO): 8.92; Avg. fold induction over four replicates, Rv3074 (Mtb (H37Rv); gene Rv3074, treated vs DMSO): 8.59; Avg. fold induction over four replicates, gltA1 (Mtb (H37Rv); gene gltA1 (Rv1131), treated vs DMSO): 15.16; Hierarchical clustering of transcriptional response (Mtb (H37Rv); top 100 most up- and down-regulated genes vs deposited Mtb transcriptional data): clustered most closely to the fatty acid biosynthesis inhibitor CD117; efflux ratio at 2 h, 10 μM (Caco-2 cell permeability): 0.15
Cc1c(C(=O)C2CC2)[n+]([O-])c2cc(Cl)c(Cl)cc2[n+]1[O-] [SRI58]	–	> 40	110	63.6	125 (≈ 39.1 µg/mL)	2.3	0.57	MIC (Mtb H37Rv strain; read-out: Mtb MIC (H37Rv), in vitro cultured Mtb H37Rv): 1.2 µg/mL (≈ 3.83 µM); Mtb MIC (H37Rv) (Mtb H37Rv strain; in vitro cultured Mtb H37Rv): 1.25 µg/mL; efflux ratio at 2 h, 10 μM (in vitro [3]): 0.25
